Assay results reported in US20240150356A1, “Pyrimidine amide compounds and use thereof” (ALPHALA CO., LTD., priority 2019, published 2024).

test system: Hep3B cells (hepatocellular carcinoma cell line); assay: In vitro MTS cell viability assay (NCI-60 methodology), Hep3B; type: cell-based; details: Homo sapiens, 48 h, Table 10, MTS, 2 days drug incubation, 50% reduction vs time zero, read-out: Hep3B LC50
In short: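 Hep3B cells given five 2-fold dilutions of compound for 2 days, with viability by MTS measured at time zero and at end. LC50 is the concentration giving a 50% fall in viable cells relative to the start of treatment, per NCI-60 formula.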

| Compound | LC50 [µM] |
| --- | --- |
| O=C(Nc1nc(-c2cccs2)nc2c1cnn2C1CCCCC1)c1ccc([N+](=O)[O-])s1 [Compound 10-5, N-(1-cyclohexyl-6-(thiophen-2-yl)-1H-pyrazolo[3,4-d]pyrimidin-4-yl)-5-nitrothiophene-2-carboxamide] | 0.75 |
| O=C(Nc1nc(-c2ccsc2)nc2c1cnn2C1CCCCC1)c1ccc([N+](=O)[O-])s1 [Compound 10-6, N-(1-cyclohexyl-6-(thiophen-3-yl)-1H-pyrazolo[3,4-d]pyrimidin-4-yl)-5-nitrothiophene-2-carboxamide] | 1.03 |
| Cc1ccc(-c2nc(NC(=O)c3ccc([N+](=O)[O-])s3)c3cnn(C4CCCCC4)c3n2)s1 [Compound 10-7, N-(1-cyclohexyl-6-(5-methylthiophen-2-yl)-1H-pyrazolo[3,4-d]pyrimidin-4-yl)-5-nitrothiophene-2-carboxamide] | 1.53 |
| O=C(Nc1nc(-c2ccc(Cl)s2)nc2c1cnn2C1CCCCC1)c1ccc([N+](=O)[O-])s1 [Compound 10-8, N-(6-(5-chlorothiophen-2-yl)-1-cyclohexyl-1H-pyrazolo[3,4-d]pyrimidin-4-yl)-5-nitrothiophene-2-carboxamide] | 0.49 |
| Cc1noc(C)c1-c1nc(NC(=O)c2ccc([N+](=O)[O-])s2)c2cnn(C3CCCCC3)c2n1 [Compound 10-9, N-(1-cyclohexyl-4-(3,5-dimethylisoxazol-4-yl)-1H-pyrazolo[3,4,d]pyrimidin-4-yl)-5-nitrothiophene-2-carboxamide] | 1.07 |
| O=C(Nc1nc(-c2cccnc2)nc2c1cnn2C1CCCCC1)c1ccc([N+](=O)[O-])s1 [Compound 10-10, N-(1-cyclohexyl-6-(pyridin-3-yl)-1H-pyrazolo[3,4,d]pyrimidin-4-yl)-5-nitrothiophene-2-carboxamide] | 0.99 |
| O=C(Nc1nc(-c2ccccc2F)nc2c1cnn2C1CCCCC1)c1ccc([N+](=O)[O-])s1 [Compound 10-11, N-(1-cyclohexyl-6-(2-fluorophenyl)-1H-pyrazolo[3,4-d]pyrimidin-4-yl)-5-nitrothiophene-2-carboxamide] | 1.94 |
| O=C(Nc1nc(-c2cccc(F)c2)nc2c1cnn2C1CCCCC1)c1ccc([N+](=O)[O-])s1 [Compound 10-12, N-(1-cyclohexyl-6-(3-fluorophenyl)-1H-pyrazolo[3,4-d]pyrimidin-4-yl)-5-nitrothiophene-2-carboxamide] | 0.95 |
| O=C(Nc1nc(-c2ccnc(F)c2)nc2c1cnn2C1CCCCC1)c1ccc([N+](=O)[O-])s1 [Compound 10-15, N-(1-cyclohexyl-6-(2-fluoropyridin-4-yl)-1H-pyrazolo[3,4-d]pyrimidin-4-yl)-5-nitrothiophene-2-carboxamide] | 1.17 |
| O=C(Nc1nc(-c2cccc(Cl)c2)nc2c1cnn2C1CCCCC1)c1ccc([N+](=O)[O-])s1 [Compound 10-16, N-(6-(3-chlorophenyl)-1-cyclohexyl-1H-pyrazolo[3,4-d]pyrimidin-4-yl)-5-nitrothiophene-2-carboxamide] | 0.61 |
| O=C(Nc1nc(-c2ccc(Cl)cc2)nc2c1cnn2C1CCCCC1)c1ccc([N+](=O)[O-])s1 [Compound 10-17, N-(6-(4-chlorophenyl)-1-cyclohexyl-1H-pyrazolo[3,4-d]pyrimidin-4-yl)-5-nitrothiophene-2-carboxamide] | 0.53 |
| Cc1ccc(-c2nc(NC(=O)c3ccc([N+](=O)[O-])s3)c3cnn(C4CCCCC4)c3n2)cn1 [Compound 10-19] | 1.13 |
| N#Cc1ccc(-c2nc(NC(=O)c3ccc([N+](=O)[O-])s3)c3cnn(C4CCCCC4)c3n2)cc1 [Compound 10-20, N-(6-(4-cyanophenyl)-1-cyclohexyl-1H-pyrazolo[3,4-d]pyrimidin-4-yl)-5-nitrothiophene-2-carboxamide] | 1.2 |
| COc1ccc(-c2nc(NC(=O)c3ccc([N+](=O)[O-])s3)c3cnn(C4CCCCC4)c3n2)cn1 [Compound 10-21, N-(1-cyclohexyl-6-(6-methoxypyridin-3-yl)-1H-pyrazolo[3,4-d]pyrimidin-4-yl)-5-nitrothiophene-2-carboxamide] | 1.12 |
| COc1cncc(-c2nc(NC(=O)c3ccc([N+](=O)[O-])s3)c3cnn(C4CCCCC4)c3n2)c1 [Compound 10-22] | 1.16 |
| O=C(Nc1nc(-c2ccc(C(F)(F)F)cc2)nc2c1cnn2C1CCCCC1)c1ccc([N+](=O)[O-])s1 [Compound 10-24, N-(1-cyclohexyl-6-(4-(trifluoromethyl)phenyl)-1H-pyrazolo[3,4-d]pyrimidin-4-yl)-5-nitrothiophene-2-carboxamide] | 0.64 |
| O=C(Nc1nc(-c2ccc(OC(F)(F)F)cc2)nc2c1cnn2C1CCCCC1)c1ccc([N+](=O)[O-])s1 [Compound 10-26, N-(1-cyclohexyl-6-(4-(trifluoromethoxy)phenyl)-1H-pyrazolo[3,4-d]pyrimidin-4-yl)-5-nitrothiophene-2-carboxamide] | 0.68 |
| O=Cc1ccc(-c2nc(NC(=O)c3ccc([N+](=O)[O-])s3)c3cnn(C4CCCCC4)c3n2)cc1 [Compound 10-27, N-(1-cyclohexyl-6-(4-formylphenyl)-1H-pyrazolo[3,4-d]pyrimidin-4-yl)-5-nitrothiophene-2-carboxamide] | 0.84 |

| Compound | LC50 [µM] |
| --- | --- |
| CC(=O)c1ccc(-c2nc(NC(=O)c3ccc([N+](=O)[O-])s3)c3cnn(C4CCCCC4)c3n2)cc1 [Compound 10-28, N-(6-(4-acetylphenyl)-1-cyclohexyl-1H-pyrazolo[3,4-d]pyrimidin-4-yl)-5-nitrothiophene-2-carboxamide] | 1.93 |
| CN(C)Cc1ccc(-c2nc(NC(=O)c3ccc([N+](=O)[O-])s3)c3cnn(C4CCCCC4)c3n2)cc1 [Compound 10-29, N-(1-cyclohexyl-6-(4-((dimethylamino)methyl)phenyl)-1H-pyrazolo[3,4-d]pyrimidin-4-yl)-5-nitrothiophene-2-carboxamide] | 1.51 |
| COCc1ccc(-c2nc(NC(=O)c3ccc([N+](=O)[O-])s3)c3cnn(C4CCCCC4)c3n2)cc1 [Compound 10-30, N-(1-cyclohexyl-6-(4-(methoxymethyl)phenyl)-1H-pyrazolo[3,4-d]pyrimidin-4-yl)-5-nitrothiophene-2-carboxamide] | 0.84 |
| COC(=O)c1cccc(-c2nc(NC(=O)c3ccc([N+](=O)[O-])s3)c3cnn(C4CCCCC4)c3n2)c1 [Compound 10-31, methyl 3-(1-cyclohexyl-4-(5-nitrothiophene-2-carboxamido)-1H-pyrazolo[3,4-d]pyrimidin-6-yl)benzoate] | 0.58 |
| CCOC(=O)c1ccc(-c2nc(NC(=O)c3ccc([N+](=O)[O-])s3)c3cnn(C4CCCCC4)c3n2)cc1 [Compound 10-33, ethyl 4-(1-cyclohexyl-4-(5-nitrothiophene-2-carboxamido)-1H-pyrazolo[3,4-d]pyrimidin-6-yl)benzoate] | 0.54 |
| CS(=O)(=O)c1ccc(-c2nc(NC(=O)c3ccc([N+](=O)[O-])s3)c3cnn(C4CCCCC4)c3n2)cc1 [Compound 10-34, N-(1-cyclohexyl-6-(4-(methylsulfonyl)phenyl)-1H-pyrazolo[3,4-d]pyrimidin-4-yl)-5-nitrothiophene-2-carboxamide] | 0.93 |
| CC(C)(C)c1ccc(-c2nc(NC(=O)c3ccc([N+](=O)[O-])s3)c3cnn(C4CCCCC4)c3n2)cc1 [Compound 10-35, N-(6-(4-(tert-butyl)phenyl)-1-cyclohexyl-1H-pyrazolo[3,4,d]pyrimidin-4-yl)-5-nitrothiophene-2-carboxamide] | 1.33 |
| O=C(Nc1nc(-c2ccc3c(c2)OCO3)nc2c1cnn2C1CCCCC1)c1ccc([N+](=O)[O-])s1 [Compound 10-36, N-(6-(benzo[d][1,3]dioxol-5-yl)-1-cyclohexyl-1H-pyrazolo[3,4-d]pyrimidin-4-yl)-5-nitrothiophene-2-carboxamide] | 2.12 |
| O=C(Nc1nc(-c2ccc3c(c2)OCCO3)nc2c1cnn2C1CCCCC1)c1ccc([N+](=O)[O-])s1 [Compound 10-37, N-(1-cyclohexyl-6-(2,3-dihydrobenzo[b][1.4]dioxin-6-yl)-1H-pyrazolo[3,4-d]pyrimidin-4-yl)-5-nitrothiophene-2-carboxamide] | 1.94 |
| O=C(Nc1nc(-c2ccc(F)cc2F)nc2c1cnn2C1CCCCC1)c1ccc([N+](=O)[O-])s1 [Compound 10-39] | 1.24 |
| O=C(Nc1nc(-c2cc(F)cc(F)c2)nc2c1cnn2C1CCCCC1)c1ccc([N+](=O)[O-])s1 [Compound 10-41] | 0.79 |
| O=C(Nc1nc(-c2ccc(Cl)cc2Cl)nc2c1cnn2C1CCCCC1)c1ccc([N+](=O)[O-])s1 [Compound 10-42] | > 1.25 |
| O=C(Nc1nc(-c2ccc(Cl)c(Cl)c2)nc2c1cnn2C1CCCCC1)c1ccc([N+](=O)[O-])s1 [Compound 10-43, N-(1-cyclohexyl-6-(3,4-dichlorophenyl)-1H-pyrazolo[3,4,d]pyrimidin-4-yl)-5-nitrothiophene-2-carboxamide] | 0.77 |
| CCOc1ccc(-c2nc(NC(=O)c3ccc([N+](=O)[O-])s3)c3cnn(C4CCCCC4)c3n2)cc1Cl [Compound 10-44] | > 2 |
| O=C(Nc1nc(-c2ccc(Cl)cc2F)nc2c1cnn2C1CCCCC1)c1ccc([N+](=O)[O-])s1 [Compound 10-45, N-(6-(4-chloro-2-fluorophenyl)-1-cyclohexyl-1H-pyrazolo[3,4-d]pyrimidin-4-yl)-5-nitrothiophene-2-carboxamide] | 0.87 |
| O=C(Nc1nc(-c2ccc(F)cc2Cl)nc2c1cnn2C1CCCCC1)c1ccc([N+](=O)[O-])s1 [Compound 10-46, N-(6-(2-chlor-4-fluorophenyl)-1-cyclohexyl-1H-pyrazolo[3,4-d]pyrimidin-4-yl)-5-nitrothiophene-2-carboxamide] | 1.03 |
| O=C(Nc1nc(-c2cc(Cl)ccc2F)nc2c1cnn2C1CCCCC1)c1ccc([N+](=O)[O-])s1 [Compound 10-47, N-(6-(5-chloro-2-fluorophenyl)-1-cyclohexyl-1H-pyrazolo[3,4-d]pyrimidin-4-yl)-5-nitrothiophene-2-carboxamide] | 0.63 |
